Data from ChEMBL document CHEMBL1201862, “PubChem BioAssay data set” (2004).
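Following 48 hours of exposure in 96-well plates, responses at five concentrations were used to interpolate endpoints linearly. GI50 marks 50% less growth.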 The source made the active and inactive calls. No stated cut-off is given here; in the data, active = GI50 up to about 1.1 µM and inactive = higher.

Assays:
Assay in all cases: NCI tumour cell line growth inhibition, 48 h
HCC 2998 = tested on: HCC 2998
NCI/ADR-RES = tested on: NCI/ADR-RES
IGROV-1 = tested on: IGROV-1
HL-60 = tested on: HL-60
SN12C = tested on: SN12C
T47D = tested on: T47D
SK-MEL-2 = tested on: SK-MEL-2
UACC-62 = tested on: UACC-62
RXF 393 = tested on: RXF 393
A498 = tested on: A498
MOLT-4 = tested on: MOLT-4
PC-3 = tested on: PC-3
SF-295 = tested on: SF-295
Hs-578T = tested on: Hs-578T
KM12 = tested on: KM12
OVCAR-8 = tested on: OVCAR-8
DU-145 = tested on: DU-145
RPMI-8226 = tested on: RPMI-8226
NCI-H522 = tested on: NCI-H522
NCI-H23 = tested on: NCI-H23
COLO 205 = tested on: COLO 205
CCRF-CEM = tested on: CCRF-CEM
K562 = tested on: K562
SK-MEL-5 = tested on: SK-MEL-5
UO-31 = tested on: UO-31
SNB-75 = tested on: SNB-75
SNB-19 = tested on: SNB-19
HCT-15 = tested on: HCT-15
Malme-3M = tested on: Malme-3M
NCI-H460 = tested on: NCI-H460
M14 = tested on: M14
HOP-92 = tested on: HOP-92
MDA-MB-231 = tested on: MDA-MB-231
MDA-N = tested on: MDA-N
SR = tested on: SR
HOP-62 = tested on: HOP-62
OVCAR-3 = tested on: OVCAR-3
HCT-116 = tested on: HCT-116
U-251 = tested on: U-251
CAKI-1 = tested on: CAKI-1
SK-MEL-28 = tested on: SK-MEL-28
NCI-H226 = tested on: NCI-H226
MCF7 = tested on: MCF7
OVCAR-5 = tested on: OVCAR-5
SK-OV-3 = tested on: SK-OV-3
MDA-MB-435 = tested on: MDA-MB-435
BT-549 = tested on: BT-549
HT-29 = tested on: HT-29
786-0 = tested on: 786-0
A549 = tested on: A549
SW-620 = tested on: SW-620
TK-10 = tested on: TK-10
EKVX = tested on: EKVX
OVCAR-4 = tested on: OVCAR-4
UACC-257 = tested on: UACC-257
LOX IMVI = tested on: LOX IMVI
SF-268 = tested on: SF-268
SF-539 = tested on: SF-539
ACHN = tested on: ACHN

CN(C)C(=S)/N=C1\SC(=N\c2ccccc2)/C(=N/c2ccccc2)N1c1ccc([N+](=O)[O-])cc1
GI50 (HCC 2998): > 100 µM (inactive) | GI50 (NCI/ADR-RES): > 100 µM (inactive) | GI50 (IGROV-1): > 100 µM (inactive) | GI50 (HL-60): > 100 µM (inactive) | GI50 (SN12C): > 100 µM (inactive) | GI50 (T47D): > 100 µM (inactive) | GI50 (SK-MEL-2): > 100 µM (inactive) | GI50 (UACC-62): > 100 µM (inactive) | GI50 (RXF 393): 21.8 µM (inactive) | GI50 (A498): > 100 µM (inactive) | GI50 (MOLT-4): 38.5 µM (inactive) | GI50 (PC-3): 8.32 µM (inactive) | GI50 (SF-295): > 100 µM (inactive) | GI50 (Hs-578T): > 100 µM (inactive) | GI50 (KM12): > 100 µM (inactive) | GI50 (OVCAR-8): > 100 µM (inactive) | GI50 (DU-145): > 100 µM (inactive) | GI50 (RPMI-8226): > 100 µM (inactive) | GI50 (NCI-H522): > 100 µM (inactive) | GI50 (NCI-H23): > 100 µM (inactive) | GI50 (COLO 205): > 100 µM (inactive) | GI50 (CCRF-CEM): > 100 µM (inactive) | GI50 (K562): > 100 µM (inactive) | GI50 (SK-MEL-5): > 100 µM (inactive) | GI50 (UO-31): > 100 µM (inactive) | GI50 (SNB-75): > 100 µM (inactive) | GI50 (SNB-19): > 100 µM (inactive) | GI50 (HCT-15): > 100 µM | GI50 (Malme-3M): > 100 µM (inactive) | GI50 (NCI-H460): > 100 µM (inactive) | GI50 (M14): > 100 µM (inactive) | GI50 (HOP-92): > 100 µM (inactive) | GI50 (MDA-MB-231): > 100 µM (inactive) | GI50 (MDA-N): > 100 µM (inactive) | GI50 (SR): > 100 µM (inactive) | GI50 (HOP-62): > 100 µM (inactive) | GI50 (OVCAR-3): > 100 µM (inactive) | GI50 (HCT-116): > 100 µM (inactive) | GI50 (U-251): > 100 µM (inactive) | GI50 (CAKI-1): > 100 µM (inactive) | GI50 (SK-MEL-28): > 100 µM (inactive) | GI50 (NCI-H226): > 100 µM (inactive) | GI50 (MCF7): > 100 µM (inactive) | GI50 (OVCAR-5): > 100 µM (inactive) | GI50 (SK-OV-3): > 100 µM (inactive) | GI50 (MDA-MB-435): > 100 µM (inactive) | GI50 (BT-549): > 100 µM (inactive) | GI50 (HT-29): > 100 µM (inactive)

O=C1Sc2cc3ccccc3cc2C(=O)Sc2cc3ccccc3cc21
GI50 (HCC 2998): 21.3 µM (inactive) | GI50 (NCI/ADR-RES): 29.1 µM (inactive) | GI50 (786-0): 15.4 µM (inactive) | GI50 (IGROV-1): 32.3 µM (inactive) | GI50 (HL-60): 7.87 µM (inactive) | GI50 (SN12C): 23.2 µM (inactive) | GI50 (T47D): 23.3 µM (inactive) | GI50 (SK-MEL-2): 23 µM (inactive) | GI50 (UACC-62): 24.8 µM (inactive) | GI50 (RXF 393): 17.7 µM (inactive) | GI50 (A498): > 100 µM (inactive) | GI50 (A549): 81.7 µM (inactive) | GI50 (MOLT-4): 15.9 µM (inactive) | GI50 (PC-3): 33.9 µM (inactive) | GI50 (SF-295): > 87.3 µM (inactive) | GI50 (Hs-578T): 44.6 µM (inactive) | GI50 (KM12): 33 µM (inactive) | GI50 (OVCAR-8): 24.5 µM (inactive) | GI50 (DU-145): 58.7 µM (inactive) | GI50 (RPMI-8226): 6.68 µM (inactive) | GI50 (NCI-H522): 7.45 µM (inactive) | GI50 (NCI-H23): 43.3 µM (inactive) | GI50 (COLO 205): > 100 µM (inactive) | GI50 (CCRF-CEM): 2.6 µM (inactive) | GI50 (K562): 27 µM (inactive) | GI50 (SK-MEL-5): 50.8 µM (inactive) | GI50 (UO-31): 19.5 µM (inactive) | GI50 (SNB-75): 38.8 µM (inactive) | GI50 (SNB-19): 47.1 µM (inactive) | GI50 (HCT-15): 22.8 µM | GI50 (Malme-3M): 34.9 µM (inactive) | GI50 (SW-620): 30.3 µM (inactive) | GI50 (NCI-H460): 41.6 µM (inactive) | GI50 (M14): 27.8 µM (inactive) | GI50 (TK-10): 55.2 µM (inactive) | GI50 (HOP-92): 30.2 µM (inactive) | GI50 (EKVX): 76.2 µM (inactive) | GI50 (MDA-MB-231): > 54.6 µM (inactive) | GI50 (MDA-N): 29 µM (inactive) | GI50 (SR): 0.454 µM (active) | GI50 (OVCAR-4): 23.2 µM (inactive) | GI50 (HOP-62): 27.3 µM (inactive) | GI50 (OVCAR-3): 21.1 µM (inactive) | GI50 (UACC-257): 27.8 µM (inactive) | GI50 (LOX IMVI): 19 µM (inactive) | GI50 (HCT-116): 17.4 µM (inactive) | GI50 (SF-268): 26 µM (inactive) | GI50 (U-251): 29.6 µM (inactive) | GI50 (CAKI-1): 32.2 µM (inactive) | GI50 (SF-539): 31.9 µM (inactive) | GI50 (SK-MEL-28): 28.6 µM (inactive) | GI50 (NCI-H226): > 100 µM (inactive) | GI50 (MCF7): 32.4 µM (inactive) | GI50 (OVCAR-5): 36.1 µM (inactive) | GI50 (SK-OV-3): > 100 µM (inactive) | GI50 (MDA-MB-435): 30.8 µM (inactive) | GI50 (ACHN): 28.9 µM (inactive) | GI50 (BT-549): 32.3 µM (inactive) | GI50 (HT-29): 28 µM (inactive)

CNc1cccnc1/C=N/N=C(/N)S
GI50 (HCC 2998): 1.82 µM (inactive) | GI50 (NCI/ADR-RES): 3.01 µM (inactive) | GI50 (786-0): 0.38 µM (active) | GI50 (IGROV-1): > 5.55 µM (inactive) | GI50 (HL-60): 0.564 µM (active) | GI50 (SN12C): 1.33 µM (inactive) | GI50 (T47D): 2.7 µM (inactive) | GI50 (SK-MEL-2): 9.89 µM (inactive) | GI50 (UACC-62): 0.379 µM (active) | GI50 (RXF 393): 1.15 µM (inactive) | GI50 (A498): 5.35 µM (inactive) | GI50 (A549): 2.61 µM (inactive) | GI50 (MOLT-4): 1.5 µM (inactive) | GI50 (PC-3): 1.69 µM (inactive) | GI50 (SF-295): 2 µM (inactive) | GI50 (Hs-578T): > 10 µM (inactive) | GI50 (KM12): 4.52 µM (inactive) | GI50 (OVCAR-8): 0.675 µM (active) | GI50 (DU-145): 0.685 µM (active) | GI50 (RPMI-8226): > 4.59 µM (inactive) | GI50 (NCI-H522): 2.47 µM (inactive) | GI50 (NCI-H23): 0.403 µM (active) | GI50 (COLO 205): 2.13 µM (inactive) | GI50 (CCRF-CEM): 0.363 µM (active) | GI50 (K562): > 4.76 µM (inactive) | GI50 (SK-MEL-5): 3.2 µM (inactive) | GI50 (UO-31): 1.78 µM (inactive) | GI50 (SNB-75): 0.863 µM (active) | GI50 (SNB-19): > 10 µM (inactive) | GI50 (HCT-15): 2.78 µM | GI50 (Malme-3M): 1.95 µM (inactive) | GI50 (SW-620): 3.05 µM (inactive) | GI50 (NCI-H460): 2.46 µM (inactive) | GI50 (M14): 1.37 µM (inactive) | GI50 (TK-10): 8.65 µM (inactive) | GI50 (HOP-92): 0.849 µM (active) | GI50 (EKVX): 4.39 µM (inactive) | GI50 (MDA-MB-231): 6.38 µM (inactive) | GI50 (MDA-N): 4.69 µM (inactive) | GI50 (SR): > 2.84 µM (inactive) | GI50 (OVCAR-4): 4.09 µM (inactive) | GI50 (HOP-62): 3.11 µM (inactive) | GI50 (OVCAR-3): 2.17 µM (inactive) | GI50 (UACC-257): > 10 µM (inactive) | GI50 (LOX IMVI): 2.02 µM (inactive) | GI50 (HCT-116): 1.22 µM (inactive) | GI50 (SF-268): 0.612 µM (active) | GI50 (U-251): 1.87 µM (inactive) | GI50 (CAKI-1): 3.48 µM (inactive) | GI50 (SF-539): 0.279 µM (active) | GI50 (SK-MEL-28): 7.74 µM (inactive) | GI50 (NCI-H226): 2.75 µM (inactive) | GI50 (MCF7): 0.471 µM (active) | GI50 (OVCAR-5): 3.89 µM (inactive) | GI50 (SK-OV-3): 4.49 µM (inactive) | GI50 (MDA-MB-435): 2.41 µM (inactive) | GI50 (ACHN): 0.332 µM (active) | GI50 (BT-549): 1.71 µM (inactive) | GI50 (HT-29): 2.45 µM (inactive)
